According to PubChem BioAssay AID248 (DTP/NCI, 2004):
“And” between values parts separate entries of the source, which are not always exact repeats. Identical values can stand only once. Inconclusive results and toxic doses are left out. Square brackets hold non-standard residues; d marks the D form. Peptide text beside a SMILES is read from it. * marks the point of attachment. ξ: configuration not given here. Cbz = O=C(OCc1ccccc1)*; ξM = CSCCC(N)C(=O)O

System: L1210 leukemia ip in BDF1 mice, survival T/C
Test: NCI In Vivo Anticancer Drug Screen. Data for tumor model L1210 Leukemia (intraperitoneal) in B6D2F1 (BDF1) mice
Conditions: endpoint: mean survival time, higher = longer survival
How it was run: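 Tumor cells were implanted, animals were treated, and survival was followed. The result divides the treated measurement by the vehicle-control measurement.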

[1] = dose: 100.0 mg/kg/injection, schedule: Q01DX009 (ip), vehicle: Klucel (hydroxypropylcellulose) (HPC)
[2] = dose: 100.0 mg/kg/injection, schedule: Q01DX009 (ip), vehicle: gum acacia
[3] = dose: 100.0 mg/kg/injection, schedule: Q04DX003 (ip), vehicle: Klucel (hydroxypropylcellulose) (HPC)
[4] = dose: 200.0 mg/kg/injection, schedule: Q04DX003 (ip), vehicle: Klucel (hydroxypropylcellulose) (HPC)
[5] = dose: 400.0 mg/kg/injection, schedule: Q04DX003 (ip), vehicle: Klucel (hydroxypropylcellulose) (HPC)
[6] = dose: 400.0 mg/kg/injection, schedule: Q01DX009 (ip), vehicle: Klucel (hydroxypropylcellulose) (HPC)
[7] = dose: 100.0 mg/kg/injection, schedule: Q04DX003 (ip), vehicle: saline
[8] = dose: 200.0 mg/kg/injection, schedule: Q04DX003 (ip), vehicle: saline
[9] = dose: 100.0 mg/kg/injection, schedule: Q04DX003 (ip), vehicle: saline with Tween-80
[10] = dose: 200.0 mg/kg/injection, schedule: Q04DX003 (ip), vehicle: saline with Tween-80
[11] = dose: 400.0 mg/kg/injection, schedule: Q04DX003 (ip), vehicle: saline with Tween-80
[12] = dose: 100.0 mg/kg/injection, schedule: Q01DX001 (ip), vehicle: saline
[13] = dose: 200.0 mg/kg/injection, schedule: Q01DX001 (ip), vehicle: saline
[14] = dose: 400.0 mg/kg/injection, schedule: Q01DX001 (ip), vehicle: saline

SMILES: O/C(=C/C(=S)S)c1cccs1
- T/C (dose: 0.78 mg/kg/injection, schedule: Q01DX009 (ip), vehicle: water): 103 % of control
- T/C (dose: 1.56 mg/kg/injection, schedule: Q01DX009 (ip), vehicle: water): 105 % of control
- T/C (dose: 3.12 mg/kg/injection, schedule: Q01DX009 (ip), vehicle: water): 102 % of control
- T/C (dose: 6.25 mg/kg/injection, schedule: Q01DX009 (ip), vehicle: water): 95 % of control
- T/C (dose: 12.5 mg/kg/injection, schedule: Q04DX003 (ip), vehicle: water): 102 % of control
- T/C (dose: 25.0 mg/kg/injection, schedule: Q04DX003 (ip), vehicle: water): 94 % of control
- T/C (dose: 50.0 mg/kg/injection, schedule: Q04DX003 (ip), vehicle: water): 100 % of control

SMILES: CC(C)(C)N=Cc1ccccc1O.CC(C)(C)N=Cc1ccccc1O.[Cu]
- T/C (dose: 6.25 mg/kg/injection, schedule: Q04DX003 (ip), vehicle: saline with Tween-80): 94 % of control
- T/C (dose: 12.5 mg/kg/injection, schedule: Q04DX003 (ip), vehicle: saline with Tween-80): 104 % of control
- T/C (dose: 25.0 mg/kg/injection, schedule: Q04DX003 (ip), vehicle: saline with Tween-80): 96 % of control

SMILES: CCN(CC)CC(=O)c1ccc(O)c(O)c1
- T/C (dose: 53.0 mg/kg/injection, schedule: Q01DX Z (ip), vehicle: carboxymethylcellulose (CMC)): 109 % of control
- T/C (dose: 83.0 mg/kg/injection, schedule: Q01DX Z (ip), vehicle: carboxymethylcellulose (CMC)): 120 % of control
- T/C (dose: 125.0 mg/kg/injection, schedule: Q01DX Z (ip), vehicle: carboxymethylcellulose (CMC)): 105 % of control
- T/C (dose: 187.0 mg/kg/injection, schedule: Q01DX Z (ip), vehicle: carboxymethylcellulose (CMC)): 115 % of control

SMILES: CC(=O)c1cccc(NC(=O)Oc2cc(=O)oc3ccccc23)c1
- T/C (dose: 25.0 mg/kg/injection, schedule: Q01DX009 (ip), vehicle: Klucel (hydroxypropylcellulose) (HPC)): 92 % of control
- T/C (dose: 50.0 mg/kg/injection, schedule: Q01DX009 (ip), vehicle: Klucel (hydroxypropylcellulose) (HPC)): 101 % of control
- T/C [1]: 101 % of control

SMILES: N=C(N)SCCSC(=N)N
- T/C (dose: 100.0 mg/kg/injection, schedule: Q04DX003 (ip), vehicle: saline sonified): 93 % of control

SMILES: CCOC(=O)c1cc(Cl)c(O)c(Cl)c1
- T/C (dose: 25.0 mg/kg/injection, schedule: Q01DX009 (ip), vehicle: gum acacia): 100 % of control
- T/C (dose: 50.0 mg/kg/injection, schedule: Q01DX009 (ip), vehicle: gum acacia): 98 % of control
- T/C [2]: 98 % of control and 100 % of control
- T/C [3]: 93 % of control
- T/C [4]: 103 % of control
- T/C [5]: 95 % of control

SMILES: OC1CCC2C=CCC1S2 (stereo not given)
- T/C [2]: 101 % of control
- T/C (dose: 200.0 mg/kg/injection, schedule: Q01DX009 (ip), vehicle: gum acacia): 100 % of control
- T/C (dose: 400.0 mg/kg/injection, schedule: Q01DX009 (ip), vehicle: gum acacia): 97 % of control

SMILES: Nc1ncnc(N)c1NC(=O)c1ccc(SCc2ccccc2)cc1
- T/C [1]: 93 % of control
- T/C [6]: 88 % of control

SMILES: C[n+]1ccc(C(=O)O)c2ccccc21
- T/C (dose: 75.0 mg/kg/injection, schedule: Q01DX001 (ip), vehicle: saline): 94 % of control
- T/C (dose: 75.0 mg/kg/injection, schedule: Q04DX003 (ip), vehicle: acetone): 92 % of control
- T/C (dose: 150.0 mg/kg/injection, schedule: Q01DX001 (ip), vehicle: saline): 95 % of control
- T/C (dose: 150.0 mg/kg/injection, schedule: Q04DX003 (ip), vehicle: acetone): 89 % of control
- T/C (dose: 300.0 mg/kg/injection, schedule: Q01DX001 (ip), vehicle: saline): 90 % of control

SMILES: c1ccc2cc(C3OCC4(CC4)CO3)ccc2c1
- T/C (dose: 50.0 mg/kg/injection, schedule: Q01DX001 (ip), vehicle: Klucel (hydroxypropylcellulose) (HPC)): 109 % of control
- T/C (dose: 100.0 mg/kg/injection, schedule: Q01DX001 (ip), vehicle: Klucel (hydroxypropylcellulose) (HPC)): 102 % of control
- T/C (dose: 200.0 mg/kg/injection, schedule: Q01DX001 (ip), vehicle: Klucel (hydroxypropylcellulose) (HPC)): 100 % of control

SMILES: Cn1nnc(CC[N+]2(C)CCOCC2)n1
- T/C [7]: 94 % of control
- T/C [8]: 96 % of control

SMILES: NC(=O)N/N=C/c1[nH]c(=S)[nH]c(=O)c1Cc1ccccc1
- T/C [9]: 101 % of control
- T/C [10]: 94 % of control
- T/C [11]: 97 % of control

SMILES: CC(C)CC(Br)C(=O)NCC(=O)O (stereo not given)
- T/C (dose: 100.0 mg/kg/injection, schedule: Q01DX009 (ip), vehicle: saline with Tween-80): 88 % of control
- T/C (dose: 200.0 mg/kg/injection, schedule: Q01DX009 (ip), vehicle: saline with Tween-80): 91 % of control
- T/C (dose: 400.0 mg/kg/injection, schedule: Q01DX009 (ip), vehicle: saline with Tween-80): 89 % of control

SMILES: CCCCN(CCCC)CC(O)c1cc(OC)c2cc(Cl)cc(Cl)c2n1 (stereo not given)
- T/C [9]: 98 % of control
- T/C [10]: 91 % of control
- T/C [11]: 94 % of control

SMILES: CC1(C)C2CCC(I)(C2)C1I (stereo not given)
- T/C (dose: 100.0 mg/kg/injection, schedule: Q01DX001 (ip), vehicle: saline with Tween-80): 93 % of control
- T/C (dose: 200.0 mg/kg/injection, schedule: Q01DX001 (ip), vehicle: saline with Tween-80): 90 % of control
- T/C (dose: 400.0 mg/kg/injection, schedule: Q01DX001 (ip), vehicle: saline with Tween-80): 93 % of control

SMILES: O=C1C(Cl)=C(Nc2ccc(Cl)cc2)C(=O)c2ccccc21
- T/C (dose: 50.0 mg/kg/injection, schedule: Q01DX001 (ip), vehicle: carboxymethylcellulose (CMC)): 95 % of control
- T/C (dose: 100.0 mg/kg/injection, schedule: Q01DX001 (ip), vehicle: carboxymethylcellulose (CMC)): 89 % of control
- T/C (dose: 200.0 mg/kg/injection, schedule: Q01DX001 (ip), vehicle: carboxymethylcellulose (CMC)): 98 % of control
- T/C (dose: 400.0 mg/kg/injection, schedule: Q01DX001 (ip), vehicle: carboxymethylcellulose (CMC)): 93 % of control

SMILES: O=C1C(Cl)=C(Cl)C(=O)C2=C1C1c3ccccc3C2c2ccccc21
- T/C [3]: 86 % of control
- T/C [4]: 94 % of control
- T/C [5]: 89 % of control

SMILES: CC(=O)ONCCc1ccc(S(=O)(=O)F)cc1
- T/C [3]: 105 % of control
- T/C [4]: 96 % of control
- T/C [5]: 98 % of control

SMILES: c1ccc(N=Nc2ccc(C3=NCCO3)cc2)cc1
- T/C [1]: 91 % of control
- T/C [7]: 95 % of control
- T/C (dose: 200.0 mg/kg/injection, schedule: Q01DX009 (ip), vehicle: Klucel (hydroxypropylcellulose) (HPC)): 88 % of control
- T/C [8]: 101 % of control
- T/C [6]: 87 % of control
- T/C (dose: 400.0 mg/kg/injection, schedule: Q04DX003 (ip), vehicle: saline): 94 % of control

SMILES: CC(=O)OCCOC(C)=O
- T/C [12]: 103 % of control
- T/C [13]: 97 % of control
- T/C [14]: 94 % of control

SMILES: C=CCNC(=O)c1ccc(C(=O)NCC=C)cc1
- T/C [12]: 102 % of control
- T/C [13]: 102 % of control
- T/C [14]: 98 % of control

SMILES: COc1ccc2nonc2c1
- T/C (dose: 100.0 mg/kg/injection, schedule: Q01DX001 (ip), vehicle: other): 100 % of control
- T/C (dose: 200.0 mg/kg/injection, schedule: Q01DX001 (ip), vehicle: other): 110 % of control

SMILES: COC(=O)C(CCSC)NC(=O)CNC(=O)CNC(=O)OCc1ccccc1 (stereo not drawn) (Cbz-Gly-Gly-[ξM]-OMe)
- T/C [9]: 106 % of control
- T/C [10]: 101 % of control
- T/C [11]: 95 % of control

SMILES: OCC1OC(n2cnc3c(SCc4ccccc4)nc(NO)nc32)C(O)C1O (stereo not given)
- T/C (dose: 267.0 mg/kg/injection, schedule: Q01DX001 (ip), vehicle: saline with Tween-80): 150 % of control

SMILES: O=C(O)C1C2OC3C(OC(=O)C31)C2Cl (stereo not given)
- T/C (dose: 100.0 mg/kg/injection, schedule: Q04DX002 (ip), vehicle: Klucel (hydroxypropylcellulose) (HPC)): 95 % of control
- T/C (dose: 200.0 mg/kg/injection, schedule: Q04DX002 (ip), vehicle: Klucel (hydroxypropylcellulose) (HPC)): 92 % of control
- T/C (dose: 400.0 mg/kg/injection, schedule: Q04DX002 (ip), vehicle: Klucel (hydroxypropylcellulose) (HPC)): 92 % of control

SMILES: CC1CC(C)(C)N=C(CCC[N+](=O)[O-])O1 (stereo not given)
- T/C (dose: 200.0 mg/kg/injection, schedule: Q04DX003 (ip), vehicle: other): 103 % of control
- T/C (dose: 400.0 mg/kg/injection, schedule: Q04DX003 (ip), vehicle: other): 88 % of control

SMILES: CCOC1c2cc(OC)ccc2C(=O)CCN1S(=O)(=O)c1ccc(C)cc1 (stereo not given)
- T/C [3]: 92 % of control
- T/C [4]: 91 % of control
- T/C [5]: 96 % of control

SMILES: CC(C)=CCC/C(C)=C/CC/C(C)=C/COC(N)=O
- T/C [3]: 93 % of control
- T/C [4]: 96 % of control
- T/C [5]: 91 % of control
